Test system: Staphylococcus aureus (MRSA)
Assay: Broth Microdilution (CLSI-BMD), non-biofilm, 10 MRSA isolates
Format: cell-based
Excerpt: A non-biofilm antimicrobial assay using the broth microdilution-based sensitivity method was completed at the University of Debrecen, Hungary. […] A percentage solution calculation established that twice the amount of vancomycin was needed to create the same 50% turbidity reduction in MRSA when tested in comparison to ZC-1.

`CN[C@H](CC(C)C)C(=O)N[C@H]1C(=O)N[C@@H](CC(N)=O)C(=O)N[C@H]2C(=O)N[C@H]3C(=O)N[C@H](C(=O)N[C@H](C(=O)O)c4cc(O)cc(O)c4-c4cc3ccc4O)[C@H](O)c3ccc(c(Cl)c3)Oc3cc2cc(c3O[C@@H]2O[C@H](CO)[C@@H](O)[C@H](O)[C@H]2O[C@H]2C[C@](C)(N)[C@H](O)[C@H](C)O2)Oc2ccc(cc2Cl)[C@H]1O` [Vancomycin] was tested, and the “MIC values, range” value (control, 10 MRSA isolates) was 4 to 16 µg/mL and the “amount needed for the same 50% turbidity reduction in MRSA, in comparison to ZC-1” value (percentage solution calculation) was “twice”.
